Test [1] relates to PD-L1. Description: PD-L1 colocalization imaging in PD-L1-GFP HeLa cells. Format: cell-based. As to conditions: 1 μM, 24 h. The procedure: (§1) Next, inventors assess if 6J1 can compromise PD-L1 trafficking. PDL1-GFP stable expressing HeLa cells are treated with or without 6J1 (1 μM) for 24 h. Cells are fixed and stained with Rab5 or EEA1. Their quantifications of the colocalization are shown in FIGS. 4d and 4e, respectively. […] Inventors thus further quantify cell membrane PD-L1 levels in live cells treated with or without 6J1 by flow cytometry or confocal imaging.
It has previously been shown that interfering with endosomal trafficking promotes exosome secretion. Moreover, PD-L1 has been reported to be enriched in exosomes and secreted outside the cell. Thus, inventors speculate that 6J1 may induce the secretion of the PD-L1 trapped in the endosomal compartments via exosomes. To determine whether 6J1 may induce the secretion of PD-L1 via exosomes, HeLa cells are treated with or without 6J1 (1 μM) for 24 h. The supernatant is collected. Inventors purify the exosomes from the supernatant of HeLa cells by sequential centrifugation. The concentration of extracellular vesicle is determined using a Nanosight nanoparticle analyzer. And HeLa cells are treated with or without 6J1 (1 μM) for 48 h. The cell and supernatant are collected for Western Blot analysis. […] Moreover, the activity of Rab27a in HeLa cells treated with or without 6J1 (1 μM) is examined with a GST-SHD pulldown assay.
HeLa cells are treated with or without 6J1. After 6 h, cells are collected for western blot analysis of LC3 and p62. […] In addition, ATG5-knockout HeLa cells are transfected with PD-L1-GFP and LC3-RFP, and then treated with or without 6J1 (1 μM) for 24 h. Cells are fixed and imaged. […] Furthermore, LC3B-knockout HeLa cells are transfected with PD-L1-GFP, and then treated with or without 6J1 (1 μM) for 24 h. Cells are fixed and stained with antibodies against Rab5 (FIG. 6d) or Rab27a (FIG. 6e).

In test [2] the test system is 4T1 cells. Description: Chemokine level in supernatant of 4T1 cells. As to conditions: in vitro, 1 μM. Format: cell-based, mouse.
Test [3] deals with PD-L1. In words: Western blot of PD-L1 in exosomes of 4T1 cells. The note with it: 1 μM. Format: cell-based, mouse. The procedure:
The current PD-L1 and PD1 therapies apply PD-L1 or PD1 monoclonal antibodies to block the PD-L1/PD1 signaling, which results in cytotoxic T cells recognizing and killing the tumor cells. […] First, flow cytometry-based quantification of plasma membrane levels of PD-L1 in 4T1 cells treated with or without 6J1 (1 μM) for 24 h. 4T1 cells are treated with or without 6J1 (1 μM) for 24 h. The supernatant is collected, and the concentration of extracellular vesicle is determined using a Nanosight nanoparticle analyzer in FIG. 8b. The exosomes are also collected and subjected to western blot analysis of the EVs marker and PD-L1 in FIG. 8c.
Therefore, it is possible that the increased exosomal PD-L1 secretion induced by 6J1 may still suppress the tumor-infiltrating T cell cytotoxicity in vivo, even though 6J1 reduces the cell surface expression level of PD-L1 on the tumor cells. To evaluate the role of exosomal PD-L1 in the tumor microenvironment and tumor progression in mice, inventors knock out Rab27a in 4T1 cells to inhibit the secretion of exosomes. 4T1-shNC or 4T1-shRab27A cells are treated with or without 6J1 (1 μM). The supernatant is collected, and the concentration of extracellular vesicle is determined using a Nanosight nanoparticle analyzer. […] Inventors analyze the plasma membrane levels of PD-L1 in 4T1-shNC or 4T1-shRab27A cells treated with or without 6J1 (1 μM). […]

Test [4] relates to PD-L1. Description: Plasma membrane PD-L1 level in HeLa cells (flow cytometry, confocal imaging). Format: cell-based. The note with it: 1 μM, 24 h. The procedure: as §1
Moreover, ATG5- or LC3-knockout HeLa cells are treated with or without 6J1 (1 μM) for 24 h. The supernatant is collected, and the concentration of the extracellular vesicle is determined using a Nanosight nanoparticle analyzer. The exosomes are also collected and subjected to western blot analysis of the EVs marker and PD-L1 in FIG. 7a. The live cells are also labeled with an anti-PD-L1 antibody in FIG. 7b and subjected to flow cytometry analysis in FIG. 7c. […] In addition, inventors assess whether other autophagy-related genes, e.g., ATG4B, ATG7, Beclin1, and Vps34 are involved in 6J1-mediated exosomal PD-L1 secretion. ATG4B-, ATG7-, Beclin1-, or VPS34-knockout HeLa cells are treated with or without 6J1 (1 μM) for 24 h. The supernatant is collected, and the concentration of extracellular vesicle is determined using a Nanosight nanoparticle analyzer. The exosomes are also collected and subjected to western blot analysis of the EVs marker and PD-L1 in FIG. 7d. The live cells are also labeled with an anti-PD-L1 antibody and subjected to flow cytometry analysis in FIG. 7e.

The subject of test [5] is LL/2 cells. In words: LL/2 mouse lung cancer model in C57BL mice. Format: in vivo. The note with it: 30 mg/kg, daily, oral gavage, 4 weeks. The procedure:
C57BL mice (n=5) are injected subcutaneously with LL/2 cells. After tumors reach around 5 mm in size, the mice are treated with either buffer (PBS) or 6J1 (30 mg/kg, daily, oral gavage) for 4 weeks. After 4 weeks, primary tumors and lungs are collected for analysis (FIGS. 16a and 16b). Tumor volumes are measured daily (p<0.001) in FIG. 16c.

As to `OCCOCCN(c1ccccc1)c1nc(N/N=C/c2cccc(I)c2)nc(N2CCOCC2)n1` [Compound 6J1], in test [1] (ATG5-knockout HeLa cells), the “6J1-induced PD-L1 puncta” value was “no effect on 6J1-induced PD-L1 puncta”; the “PD-L1/LC3B colocalization in 6J1-treated cells” value was “abolishes this colocalization between PD-L1 and LC3B”. In addition, the “6J1-induced PD-L1 puncta and PD-L1 colocalization with RAB5 or RAB27A” value in test [1] (LC3B-knockout HeLa cells) is given as “LC3B knockout does not affect”. In test [1] (PD-L1-GFP HeLa cells), the “accumulation of PD-L1 in vesicles colocalized with early endosome markers EEA1 and RAB5” value is “clearly induces the accumulation of PD-L1 within vesicle-like structures in the cytoplasm”; the “colocalization between PD-L1 and RAB11 (recycling endosome marker)” value was “markedly decreases the colocalization between PD-L1 and RAB11”; the “colocalization of PD-L1 with exosomal markers TSG101, CD63, Rab27A” value was “significantly induces the colocalization of PD-L1 with the exosomal markers”. In addition, the “colocalization of PD-L1-containing vesicles with LC3B puncta” value in test [1] (control HeLa cells with PD-L1-GFP and LC3-RFP) is “strongly colocalized with LC3B puncta”. Moreover, the “secretion of various chemokines from 4T1 cells” value in test [2] is recorded as “markedly induces the secretion of various chemokines”. Further, the “6J1-induced exosomal PD-L1 levels” value in test [3] (4T1-shRab27A cells) is “significantly inhibits”. Moreover, the “secretion of PD-L1 in exosomes” value in test [3] (4T1 cells, 24 h) is on record as “induces the secretion of PD-L1 in exosomes”. Also, in test [4] (ATG4B-, ATG7-, Beclin1- or VPS34-knockout HeLa cells), the “6J1-mediated decrease in the level of PD-L1 at the cell surface” value is “does not affect”. For the same molecule, the “6J1-induced decrease in the level of PD-L1 at the cell surface” value in test [4] (ATG5- or LC3B-knockout HeLa cells) was “Neither ATG5 nor LC3B knockout impairs”. The “expression of PD-L1 on the surface of cells” value in test [4] (HeLa cells) is “significantly reduces the expression of PD-L1 on the surface of cells”. In test [5], the “tumor growth of mouse lung cancer” value was “significantly inhibits the tumor growth of mouse lung cancer”.
